Several values for one entry are separate records, joined by “and”; a condition that tells them apart may be missing. Equal values may be shown once. Entries after “also recorded” stand apart in the source; their conditions may differ. Where a name gives a salt, the structure may show the parent alone. Read-outs that look alike come from different tables or passages of the source.

This is an account of results in US11560400B2, “Salts of diphosphate phosphoramidate of nucleosides as anticancer compounds” (NuCana plc, priority 2017, dated 2023).

Data set [1] has as its system CCRF-CEM. Kind of data set: CellTiterGlo cell viability assay, CCRF-CEM. It is filed as cell-based. The following applies: Homo sapiens, 72 h; for EC50: Table 3 classes, read-out: Ab EC50; for inhibition at 198 µM: percentage inhibition at the highest concentration tested, read-out: Top Inh. A digest of the protocol: (§1)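 Duplicate wells received test compound across nine 3.16-fold steps (198 μM to 19.8 nM final) for about 3 days under standard culture. Viability was read by CTG luminescence, and absolute EC50 plus inhibition at highest dose derived.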
(In general: In ATP-based viability assays light output follows the ATP content of the culture.)

The test system of data set [2] is Lin−/CD34+/CD38−/CD123+ LSCs of KG1a cells. Kind of data set: Leukaemic stem cell (LSC) targeting in KG1a cells. The following applies: in words. It is filed as cell-based. Here is the method: KG1a cells were cultured for 48 h in the presence of a wide range of concentrations of each nucleoside analogue and their respective diphosphate phosphramidate. Cells were then harvested and labelled with a cocktail of anti-lineage antibodies (PE-cy7), anti-CD34 (FITC), anti-CD38 (PE) and anti-CD123 (PERCP cy5). The sub-population expressing a leukaemic stem cell (LSC) phenotype were subsequently identified and were expressed as a percentage of all viable cells left in the culture. The percentages of stem cells remaining were then plotted on a dose-response graph and the effects of the diphosphate phosphoramidate were compared with the parental nucleosides.

Data set [3] deals with MCF-7. As to the kind of experiment: CellTiterGlo cell viability assay, MCF-7. It is filed as cell-based. The following applies: MCF-7, 72 h; for EC50: read-out: Ab EC50; for inhibition at 198 µM: read-out: Top Inhibit. A digest of the protocol:
as §1

Data set [4] deals with K562. As to the kind of experiment: CellTiterGlo cell viability assay, K562. It is filed as cell-based. The following applies: Homo sapiens, K562, 72 h; for inhibition at 198 µM: percentage inhibition at the highest concentration tested, read-out: Top Inh; for EC50: Table 3 classes, read-out: Ab EC50. A digest of the protocol: as §1
The test system of data set [5] is RL. As to the kind of experiment: CellTiterGlo cell viability assay, RL. It is filed as cell-based. Conditions: Homo sapiens, 72 h; for EC50: Table 3 classes, read-out: Ab EC50; for inhibition at 198 µM: percentage inhibition at the highest concentration tested, read-out: Top Inh. A digest of the protocol:
as §1

Data set [6] relates to HT29. As to the kind of experiment: CellTiterGlo cell viability assay, HT29. Conditions: HT29, 72 h; for EC50: read-out: Ab EC50; for inhibition at 198 µM: read-out: Top Inhibit. Type of data set: cell-based. A digest of the protocol: as §1
The test system of data set [7] is KG1a cells. As to the kind of experiment: In vitro cytotoxicity, Annexin V/propidium iodide assay in KG1a cells. Conditions: for change of potency (mean LD50) under hypoxic versus normoxic conditions: 5% oxygen; for Hypoxia Mean LD50 / Mean LD50 (Normoxia Mean LD50): 48 h; for Hypoxia Mean LD50: hypoxic (5% O2); for Mean LD50 (Normoxia Mean LD50): normoxic (20% oxygen); for mean LD50: normoxic; for Ratio Normoxia/Hypoxia: ratio of mean LD50 values. It is filed as cell-based. Here is the method:
The acute myeloid leukaemia (AML) KG1a cell line was maintained in RPMI medium (Invitrogen, Paisley, UK) supplemented with 100 units/mL penicillin, 100 μg/mL streptomycin and 20% foetal calf serum. Cells were subsequently aliquoted (10^5 cells/100 μL) into 96-well plates and were incubated at 37° C. in a humidified normoxic (20% oxygen) or hypoxic (1% or 5% oxygen) atmosphere for 48 h in the presence of clofarabine, or clofarabine diphosphate phosphoramidates of the invention (1×10^−10M-1×10^−6M). In addition, control cultures were carried out to which no drug was added. Cells were subsequently harvested by centrifugation and were analysed by flow cytometry using the Annexin V assay.
Cultured cells were harvested by centrifugation and then resuspended in 195 μL of calcium-rich buffer. Subsequently, 5 μL of Annexin V (Caltag Medsystems, Botolph Claydon, UK) was added to the cell suspension and cells were incubated in the dark for 10 mins prior to washing. Cells were finally resuspended in 190 μL of calcium-rich buffer together with 10 μL of propidium iodide. Apoptosis was assessed by dual-colour immunofluorescent flow cytometry as described previously. Subsequently LD50 values (the dose required to kill 50% of the cells in a culture) were calculated for each nucleoside analogue and diphosphate phosphoramidate.
The data obtained in these experiments were evaluated using one-way ANOVA. All data was confirmed as Gaussian or a Gaussian approximation using the omnibus K2 test. LD50 values were calculated from the non-linear regression and line of best-fit analysis of the sigmoidal dose-response curves. All statistical analyses were performed using Graphpad Prism 6.0 software (Graphpad Software Inc., San Diego, Calif.).
The in vitro drug sensitivity of KG1a cells was assessed using the Annexin V/propidium iodide assay.

Data set [8] has as its system HL-60. As to the kind of experiment: CellTiterGlo cell viability assay, HL-60. Conditions: Homo sapiens, HL-60, 72 h; for EC50: Table 3 classes, read-out: Ab EC50; for inhibition at 198 µM: percentage inhibition at the highest concentration tested, read-out: Top Inh. Type of data set: cell-based. A digest of the protocol:
as §1

Data set [9] concerns OVCAR 3. As to the kind of experiment: CellTiterGlo cell viability assay, OVCAR 3. Type of data set: cell-based. Conditions: Homo sapiens; for EC50: OVCAR 3, 72 h, Table 3 classes, read-out: Ab EC50. A digest of the protocol: as §1
Data set [10] deals with MOLT-4. Kind of data set: CellTiterGlo cell viability assay, MOLT-4. Type of data set: cell-based. The following applies: Homo sapiens, MOLT-4, 72 h; for inhibition at 198 µM: percentage inhibition at the highest concentration tested, read-out: Top Inh; for EC50: Table 3 classes, read-out: Ab EC50. A digest of the protocol: as §1
Data set [11] in a line: in vitro. The following applies: human, hepatocytes, pH 7.3.
Data set [12] concerns RPMI-8226. Kind of data set: CellTiterGlo cell viability assay, RPMI-8226. Type of data set: cell-based, Human. Conditions: Homo sapiens, RPMI-8226, 72 h; for EC50: Table 3 classes, read-out: Ab EC50; for inhibition at 198 µM: percentage inhibition at the highest concentration tested, read-out: Top Inh. A digest of the protocol:
as §1

The test system of data set [13] is Human hepatocytes. The following applies: pooled cryopreserved hepatocytes, 1 μM, 0 and 120 min, 37° C.
The subject of data set [14] is Mia-Pa-Ca-2. As to the kind of experiment: CellTiterGlo cell viability assay, Mia-Pa-Ca-2. It is filed as cell-based. Conditions: Mia-Pa-Ca-2, 72 h. A digest of the protocol:
as §1

Setting [15] is: Homo sapiens, MCF7, 72 h, Table 3 classes.
Where [16] appears, read: Homo sapiens, MCF7, 72 h, percentage inhibition at the highest concentration tested.
[17] abbreviates: Homo sapiens, HT-29, 72 h, Table 3 classes.
Where [18] appears, read: Homo sapiens, HT-29, 72 h, percentage inhibition at the highest concentration tested.
[19] abbreviates: percentage inhibition at the highest concentration tested.

Usually EC50 stands for the midpoint of the concentration-response curve. For orientation: half-life means the time needed for the level to fall by half in the phase considered. A high value points to slow loss. On to `C[C@H](NP(=O)(Oc1ccccc1)OP(=O)(O)OC[C@H]1O[C@@H](n2cnc3c(N)nc(Cl)nc32)[C@H](F)C1O)C(=O)OCc1ccccc1` (stereo partly drawn) [Example 1, 2-Chloro-9-(2′-Deoxy-2′-fluoro-β-D-arabinofuranosyl)adenine-5′-O-[phenyl(benzoxy-L-alaninyl)] Diphosphate Triethylammonium Salt], for which the 50% effective concentration (EC50) is < 0.2 µM in data set [1]; 0.2 to 2 µM in [3] (setting [15]); > 10 µM in data set [4]; 0.2 to 2 µM in data set [5]; 0.2 to 2 µM in data set [6] (setting [17]); < 0.2 µM in data set [8]. In addition, the EC50 in [9] was > 10 µM; in data set [10], < 0.2 µM; in [12] it was 5 to 10 µM. For the same molecule, the inhibition at 198 µM is 98.7% in data set [1]; 59% in [3] (setting [16]); 24% in data set [4]; 70% in [5]; 66% in data set [6] (setting [18]); 97% in data set [8]. The results for the inhibition at 198 µM in [10] and in [12] were 82.7% and 91%, respectively. In addition, in data set [2], the “selectivity against LSCs” value is “trend towards increased selectivity”. For the same molecule, the “change of potency (mean LD50) under hypoxic versus normoxic conditions” value in data set [7] (in words) is listed as “no significant difference in mean LD50 values; also recorded: reduction in potency was not observed”. In data set [7], the “Hypoxia Mean LD50” value came out at 16.3 nM. In addition, in data set [7], the “Mean LD50 (Normoxia Mean LD50)” value is given as 13.7 nM. Further, in [7] (in words), the “potency in KG1a cells (dose-response curves)” value is reported as “highest potency; also recorded: slightly more potent”. Besides, the “mean LD50” value in data set [7] was 13.7 nM. Also, the “Ratio Normoxia/Hypoxia” value in data set [7] is reported as 84.0. Besides, the half-life in data set [11] fell in the range of 0.333 to 1.67 h.

Take `CCOC(=O)[C@H](C)NP(=O)(Oc1ccccc1)OP(=O)(O)OC[C@H]1O[C@@H](n2cnc3c(N)nc(Cl)nc32)[C@H](F)C1O` (stereo partly drawn) [Example 2, 2-Chloro-9-(2′-Deoxy-2′-fluoro-β-D-arabinofuranosyl)adenine-5′-O-[phenyl(ethoxy-L-alaninyl)] Diphosphate Triethylammonium Salt]: the EC50 is < 0.2 µM in [1]; 0.2 to 2 µM in [3] (setting [15]); > 10 µM in data set [4]; 0.2 to 2 µM in [5]; 0.2 to 2 µM in data set [6] (setting [17]); < 0.2 µM in data set [8]. Moreover, the 50% effective concentration (EC50) in data set [9] is > 10 µM; in data set [10] it was < 0.2 µM; in [12], 5 to 10 µM. For the same molecule, the inhibition at 198 µM in data set [1] is 98.7%; in data set [3] (setting [16]), 54%; in data set [4] it was 29%; in data set [5], 65%; in data set [6] (setting [18]), 62%; in [8], 98%. Moreover, the inhibition at 198 µM in [9] (OVCAR-3, 72 h, percentage inhibition at the highest concentration tested, read-out: Top Inhibit) is 48%; in data set [10], 98%; in data set [12], 92%. For the same molecule, the “change of potency (mean LD50) under hypoxic versus normoxic conditions” value in [7] (in words) is “reduction in potency was not observed”. The “Hypoxia Mean LD50” value in data set [7] is on record as 95.0 nM. For the same molecule, the “Mean LD50 (Normoxia Mean LD50)” value in data set [7] was 71.0 nM. Besides, the “mean LD50” value in data set [7] was 43.8 nM and 71 nM. In addition, in [7], the “Ratio Normoxia/Hypoxia” value turned out to be 74.7. The half-life in data set [11] is 0.333 to 1.67 h.

Take `Nc1ncnc2c1nc(Cl)n2[C@@H]1O[C@H](CO)[C@@H](O)[C@H]1O` [8-Cl-Adenosine, reference compound]: in data set [13], the “Human hepatocytes Mean half-life” value was >2 h. Moreover, the 50% effective concentration (EC50) was 1.83 µM in data set [3] (absolute EC50, numeric values); 0.42 µM in data set [14] (absolute EC50, read-out: Ab EC50); 1.96 µM in data set [6] (absolute EC50, numeric values). For the same molecule, the results for the “Top Inhibit” value in [3] (setting [19]), in data set [14] (setting [19]) and in data set [6] (setting [19]) were 85.7%, 85% and 73%, respectively.
